Reference: paper PMC9071123 (PLoS Neglected Tropical Diseases, 2022)
Several values for one entry are separate records, joined by “and”; a condition that tells them apart may be missing. Identical values can stand only once. Counter-ions that a name gives are not always drawn. Like-named read-outs stand apart in the source and are kept apart here.

How the values were obtained:
in vitro [1] = details: human
Vero E6 cells [2] = details: African green monkey, 36 h
Caco2 cells = details: human, 36 h
SARS-CoV-2 [3] = assay: microbe, parasite or virus in culture; assay type: cell-based, SARS-CoV-2 (WIV-04); details: Severe acute respiratory syndrome coronavirus 2, Caco-2, 36 h
SARS-CoV-2 [4] = assay: microbe, parasite or virus in culture; assay type: cell-based, SARS-CoV-2 (WIV-04); details: for EC50: Severe acute respiratory syndrome coronavirus 2, Vero C1008, 36 h
[5] = tested on: Renilla luciferase (Rluc) replicon of SARS-CoV-2; assay type: cell-based
[6] = tested on: SARS-CoV-2 S-mediated cell-cell fusion; assay type: cell-based
SARS-CoV-2 [7] = assay: Virus attachment assay in Vero E6 cells; details: 10 μM, Vero E6, 4°C 1 h
Experimental: After synchronized adsorption for 1 h, the unbound SARS-CoV-2 virions were removed by PBS washing, and the relative levels of bound SARS-CoV-2 virions were measured by qRT-PCR assay.

[8] = tested on: VSV-delG-Rluc-SARS-CoV-2-S pseudovirus; assay type: cell-based; details: 10 μM
in vitro [9] = details: African green monkey
SARS-CoV-2 [10] = details: previous study ref 19; cited from earlier work
[11] = Cytotoxicity CCK8 assay, Vero E6; details: African green monkey, Vero E6 cells
Vero E6 cells [12] = assay: Cytotoxicity CCK8 assay, Vero E6

COc1cc2c3cc1Oc1c(OC)c(OC)cc4c1[C@@H](Cc1ccc(O)c(c1)Oc1ccc(cc1)C[C@@H]3N(C)CC2)N(C)CC4 [Berbamine hydrochloride]
CC50 at 36 h (in vitro [1]): 31.9 µM
%inhibiton, mean (CC50 data, CCK-8) (Vero E6 cells [2]; 0.3125 μM): -6.065%
%inhibiton, mean (CC50 data, CCK-8) (Vero E6 cells [2]; 0.625 μM): -4.636%
%inhibiton, mean (CC50 data, CCK-8) (Vero E6 cells [2]; 1.25 μM): -0.8416%
%inhibiton, mean (CC50 data, CCK-8) (Vero E6 cells [2]; 2.5 μM): -0.7911%
%inhibiton, mean (CC50 data, CCK-8) (Vero E6 cells [2]; 5 μM): -7.026%
%inhibiton, mean (CC50 data, CCK-8) (Vero E6 cells [2]; 10 μM): -8.006%
%inhibiton, mean (CC50 data, CCK-8) (Vero E6 cells [2]; 20 μM): 1.038%
%inhibiton, mean (CC50 data, CCK-8) (Vero E6 cells [2]; 40 μM): 73.2674%
%inhibiton, mean (CC50 data, CCK-8) (Vero E6 cells [2]; 80 μM): 78.8829%
%inhibiton, mean (CC50 data, CCK-8) (Caco2 cells; 0.3125 μM): -11.728%
%inhibiton, mean (CC50 data, CCK-8) (Caco2 cells; 0.625 μM): -16.6504%
%inhibiton, mean (CC50 data, CCK-8) (Caco2 cells; 1.25 μM): -15.2704%
%inhibiton, mean (CC50 data, CCK-8) (Caco2 cells; 2.5 μM): -14.7661%
%inhibiton, mean (CC50 data, CCK-8) (Caco2 cells; 5 μM): -19.7288%
%inhibiton, mean (CC50 data, CCK-8) (Caco2 cells; 10 μM): -18.7648%
%inhibiton, mean (CC50 data, CCK-8) (Caco2 cells; 20 μM): -1.748%
%inhibiton, mean (CC50 data, CCK-8) (Caco2 cells; 40 μM): 50.1206%
%inhibiton, mean (CC50 data, CCK-8) (Caco2 cells; 80 μM): 67.6973%
EC50 (SARS-CoV-2 [3]): 1.89 µM
EC50 (SARS-CoV-2 [4]): 1.73 µM
replicon luciferase signal, drug treatment versus DMSO [5]: no significant difference
inhibition of S-mediated cell-cell fusion (syncytial phenotype) [6]: little or no such syncytial phenotype was observed
cell-attached viral RNA copies versus DMSO control group (SARS-CoV-2 [7]): no significant difference
Viral copies (Normalized to DMSO), mean (SARS-CoV-2 [7]; MOI 0.05 (DMSO = 100)): 94.7359
reduction of intracellular luciferase activity compared to DMSO treatment ([8]; Vero E6, 24 h post pseudovirus infection): about 10 fold
intracellular luciferase activity, mean ([8]; Vero E6, 24 h post-infection (DMSO mean 389736)): 47678.5
CC50 at 36 h (in vitro [9]): 66.9 µM

COc1ccc2cc1Oc1ccc(cc1)C[C@H]1c3c(cc4c(c3Oc3cc5c(cc3OC)CCN(C)[C@@H]5C2)OCO4)CCN1C [Cepharanthine, cepharanthine]
%inhibiton, mean (viral RNA genomic copy number) (SARS-CoV-2 [4]): 99.5371% and 98.6265% and 86.3235% and 71.2349% and 67.6803%
inhibition against SARS-CoV-2 infection (SARS-CoV-2 [4]): dose-dependent inhibition
selective index (SI) (SARS-CoV-2 [4]): >8.93
EC50 (SARS-CoV-2 [4]): 2.24 µM
inhibition of S-mediated cell-cell fusion (syncytial phenotype) [6]: apparent inhibitory effects
inhibition of the SARS-CoV-2 induced cytopathic effect (SARS-CoV-2 [10]): efficiently inhibit
CC50 at 36 h [11]: > 20 µM
%inhibiton, mean (CC50 data, CCK-8) (Vero E6 cells [12]; Vero-E6, 0.078125 μM): 9.153%
%inhibiton, mean (CC50 data, CCK-8) (Vero E6 cells [12]; Vero-E6, 0.15625 μM): 9.469%
%inhibiton, mean (CC50 data, CCK-8) (Vero E6 cells [12]; Vero-E6, 0.3125 μM): 5.3801%
%inhibiton, mean (CC50 data, CCK-8) (Vero E6 cells [12]; Vero-E6, 0.625 μM): 1.292%
%inhibiton, mean (CC50 data, CCK-8) (Vero E6 cells [12]; Vero-E6, 1.25 μM): 5.646%
%inhibiton, mean (CC50 data, CCK-8) (Vero E6 cells [12]; Vero-E6, 2.5 μM): 5.87%
%inhibiton, mean (CC50 data, CCK-8) (Vero E6 cells [12]; Vero-E6, 5 μM): 7.302%
%inhibiton, mean (CC50 data, CCK-8) (Vero E6 cells [12]; Vero-E6, 10 μM): 3.537%
%inhibiton, mean (CC50 data, CCK-8) (Vero E6 cells [12]; Vero-E6, 20 μM): 2.215%

COc1ccc2cc1Oc1ccc(cc1)C[C@H]1c3cc(c(OC)cc3CCN1C)Oc1c(O)c(OC)cc3c1[C@H](C2)N(C)CC3 [Fangchinoline, fangchinoline]
inhibition against SARS-CoV-2 infection (SARS-CoV-2 [4]): dose-dependent inhibition
selective index (SI) (SARS-CoV-2 [4]): >9.57
EC50 (SARS-CoV-2 [4]): 2.09 µM
inhibition of S-mediated cell-cell fusion (syncytial phenotype) [6]: apparent inhibitory effects
inhibition of the SARS-CoV-2 induced cytopathic effect (SARS-CoV-2 [10]): efficiently inhibit
CC50 at 36 h [11]: > 20 µM
%inhibiton, mean (CC50 data, CCK-8) (Vero E6 cells [12]; Vero-E6, 0.078125 μM): 7.966%
%inhibiton, mean (CC50 data, CCK-8) (Vero E6 cells [12]; Vero-E6, 0.15625 μM): 4.163%
%inhibiton, mean (CC50 data, CCK-8) (Vero E6 cells [12]; Vero-E6, 0.3125 μM): 4.478%
%inhibiton, mean (CC50 data, CCK-8) (Vero E6 cells [12]; Vero-E6, 0.625 μM): 8.257%
%inhibiton, mean (CC50 data, CCK-8) (Vero E6 cells [12]; Vero-E6, 1.25 μM): 10.5597%
%inhibiton, mean (CC50 data, CCK-8) (Vero E6 cells [12]; Vero-E6, 2.5 μM): 7.088%
%inhibiton, mean (CC50 data, CCK-8) (Vero E6 cells [12]; Vero-E6, 5 μM): 14.0504%
%inhibiton, mean (CC50 data, CCK-8) (Vero E6 cells [12]; Vero-E6, 10 μM): 8.415%
%inhibiton, mean (CC50 data, CCK-8) (Vero E6 cells [12]; Vero-E6, 20 μM): 0.3804%

COc1ccc2cc1Oc1ccc(cc1)C[C@H]1c3cc(c(OC)cc3CCN1C)Oc1c(OC)c(OC)cc3c1[C@H](C2)N(C)CC3 [Tetrandrine, tetrandrine]
inhibition against SARS-CoV-2 infection (SARS-CoV-2 [4]): dose-dependent inhibition
selective index (SI) (SARS-CoV-2 [4]): >6.92
EC50 (SARS-CoV-2 [4]): 2.89 µM
inhibition of S-mediated cell-cell fusion (syncytial phenotype) [6]: apparent inhibitory effects
inhibition of the SARS-CoV-2 induced cytopathic effect (SARS-CoV-2 [10]): efficiently inhibit
CC50 at 36 h [11]: > 20 µM
%inhibiton, mean (CC50 data, CCK-8) (Vero E6 cells [12]; Vero-E6, 0.078125 μM): 5.4651%
%inhibiton, mean (CC50 data, CCK-8) (Vero E6 cells [12]; Vero-E6, 0.15625 μM): 9.075%
%inhibiton, mean (CC50 data, CCK-8) (Vero E6 cells [12]; Vero-E6, 0.3125 μM): 8.155%
%inhibiton, mean (CC50 data, CCK-8) (Vero E6 cells [12]; Vero-E6, 0.625 μM): 11.3125%
%inhibiton, mean (CC50 data, CCK-8) (Vero E6 cells [12]; Vero-E6, 1.25 μM): 11.2558%
%inhibiton, mean (CC50 data, CCK-8) (Vero E6 cells [12]; Vero-E6, 2.5 μM): 4.063%
%inhibiton, mean (CC50 data, CCK-8) (Vero E6 cells [12]; Vero-E6, 5 μM): 5.628%
%inhibiton, mean (CC50 data, CCK-8) (Vero E6 cells [12]; Vero-E6, 10 μM): -1.303%
%inhibiton, mean (CC50 data, CCK-8) (Vero E6 cells [12]; Vero-E6, 20 μM): -2.23%

COc1ccc(C[C@@H]2c3cc(Oc4cc(C[C@@H]5c6cc(O)c(OC)cc6CCN5C)ccc4O)c(OC)cc3CCN2C)cc1 [isoliensinine]
inhibition of S-mediated cell-cell fusion (syncytial phenotype) [6]: apparent inhibitory effects
inhibition of the SARS-CoV-2 induced cytopathic effect (SARS-CoV-2 [10]): efficiently inhibit

COc1cc2c(cc1OC)[C@@H](Cc1ccc(O)c(Oc3cc4c(cc3OC)CCN(C)[C@@H]4Cc3ccc(O)cc3)c1)N(C)CC2 [liensinine]
inhibition of S-mediated cell-cell fusion (syncytial phenotype) [6]: apparent inhibitory effects
inhibition of the SARS-CoV-2 induced cytopathic effect (SARS-CoV-2 [10]): efficiently inhibit
